Article PMC9110600, “Purification, identification and characterization of Nag2 N-acetylglucosaminidase from Trichoderma virens strain mango” (Botanical Studies, 2022)

Target: T1, TvmNAG2 (Trichoderma virens, UniProt G9MXZ5)
T1 construct: gene NAG2; mature (signal peptide removed)
Assay: p-nitrophenol release at […] nm, Lineweaver-Burk
Assay type: biochemical
Conditions: standard assay: 50 mM phosphate buffer pH 5, 65 °C, 30 min

T1 sequence (G9MXZ5 entry or part of it): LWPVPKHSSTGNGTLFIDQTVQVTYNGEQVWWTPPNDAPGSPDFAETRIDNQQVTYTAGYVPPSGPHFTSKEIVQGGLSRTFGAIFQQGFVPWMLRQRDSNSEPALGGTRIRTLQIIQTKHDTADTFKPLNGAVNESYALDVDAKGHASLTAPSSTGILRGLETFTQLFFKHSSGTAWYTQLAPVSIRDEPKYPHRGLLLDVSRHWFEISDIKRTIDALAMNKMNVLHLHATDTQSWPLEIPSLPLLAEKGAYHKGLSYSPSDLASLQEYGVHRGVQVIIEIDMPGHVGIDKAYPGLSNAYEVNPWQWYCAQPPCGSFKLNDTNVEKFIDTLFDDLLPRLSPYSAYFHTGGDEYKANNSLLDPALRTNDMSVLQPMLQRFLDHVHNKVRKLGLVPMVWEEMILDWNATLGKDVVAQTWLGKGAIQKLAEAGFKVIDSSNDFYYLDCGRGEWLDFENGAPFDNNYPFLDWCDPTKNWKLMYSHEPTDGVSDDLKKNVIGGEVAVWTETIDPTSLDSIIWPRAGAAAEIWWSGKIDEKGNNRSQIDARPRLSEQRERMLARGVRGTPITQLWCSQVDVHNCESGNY

Km: ~450 µM
Structure (SMILES): CC(=O)N[C@H]1[C@H](Oc2ccc([N+](=O)[O-])cc2)O[C@H](CO)[C@@H](O)[C@@H]1O [pNP-NAG]
